Calls of active or inactive are those of the source. No cut-off for these calls is given here.
Key:
[1] = biological target: T1, Polyunsaturated fatty acid 5-lipoxygenase (Homo sapiens, UniProt P09917); test: Inhibition of 5-lipoxygenase in human whole blood assessed as inhibition of LTB4 production; type: tissue-based
T1 sequence (P09917 whole entry): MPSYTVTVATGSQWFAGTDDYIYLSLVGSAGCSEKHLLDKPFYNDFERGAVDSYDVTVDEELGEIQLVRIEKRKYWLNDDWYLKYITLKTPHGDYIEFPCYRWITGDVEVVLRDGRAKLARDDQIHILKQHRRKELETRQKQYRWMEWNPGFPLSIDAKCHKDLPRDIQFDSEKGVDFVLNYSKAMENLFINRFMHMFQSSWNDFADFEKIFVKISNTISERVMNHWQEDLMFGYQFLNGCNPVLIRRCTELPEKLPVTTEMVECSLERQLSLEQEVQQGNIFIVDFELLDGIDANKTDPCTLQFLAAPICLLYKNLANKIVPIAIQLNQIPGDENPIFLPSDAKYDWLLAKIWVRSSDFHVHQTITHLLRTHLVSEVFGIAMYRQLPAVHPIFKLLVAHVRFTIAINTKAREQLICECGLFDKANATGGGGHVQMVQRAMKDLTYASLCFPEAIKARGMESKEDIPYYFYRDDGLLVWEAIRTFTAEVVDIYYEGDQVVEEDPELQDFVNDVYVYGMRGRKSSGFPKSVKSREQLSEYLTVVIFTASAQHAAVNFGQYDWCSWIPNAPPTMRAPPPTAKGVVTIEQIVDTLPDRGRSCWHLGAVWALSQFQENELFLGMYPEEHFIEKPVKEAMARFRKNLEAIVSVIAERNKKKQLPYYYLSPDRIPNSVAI

[2] = biological target: T1, Polyunsaturated fatty acid 5-lipoxygenase; test: Inhibition of human recombinant 5-lipoxygenase assessed as arachidonic acid oxidation
[3] = biological target: Voltage-gated inwardly rectifying potassium channel KCNH2 (Homo sapiens, UniProt Q12809); test: Displacement of labeled MK-499 from human ERG
[4] = biological target: T2, Arachidonate 5-lipoxygenase-activating protein (Homo sapiens) (UniProt P20292); test: (§1) Inhibition of 5-lipoxygenase activating protein
T2 sequence (whole entry): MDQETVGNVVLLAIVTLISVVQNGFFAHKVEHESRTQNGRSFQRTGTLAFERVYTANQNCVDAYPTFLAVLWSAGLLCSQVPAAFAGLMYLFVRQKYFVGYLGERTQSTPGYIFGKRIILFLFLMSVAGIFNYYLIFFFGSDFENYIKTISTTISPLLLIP

[5] = biological target: T3, Arachidonate 5-lipoxygenase-activating protein (Homo sapiens, UniProt P20292); test: as §1
T3 sequence (P20292 whole entry): T2 sequence (whole entry)

[6] = biological target: T4, Polyunsaturated fatty acid lipoxygenase ALOX12 (Homo sapiens, UniProt P18054); test: Inhibition of 12-lipoxygenase
T4 sequence (P18054 whole entry): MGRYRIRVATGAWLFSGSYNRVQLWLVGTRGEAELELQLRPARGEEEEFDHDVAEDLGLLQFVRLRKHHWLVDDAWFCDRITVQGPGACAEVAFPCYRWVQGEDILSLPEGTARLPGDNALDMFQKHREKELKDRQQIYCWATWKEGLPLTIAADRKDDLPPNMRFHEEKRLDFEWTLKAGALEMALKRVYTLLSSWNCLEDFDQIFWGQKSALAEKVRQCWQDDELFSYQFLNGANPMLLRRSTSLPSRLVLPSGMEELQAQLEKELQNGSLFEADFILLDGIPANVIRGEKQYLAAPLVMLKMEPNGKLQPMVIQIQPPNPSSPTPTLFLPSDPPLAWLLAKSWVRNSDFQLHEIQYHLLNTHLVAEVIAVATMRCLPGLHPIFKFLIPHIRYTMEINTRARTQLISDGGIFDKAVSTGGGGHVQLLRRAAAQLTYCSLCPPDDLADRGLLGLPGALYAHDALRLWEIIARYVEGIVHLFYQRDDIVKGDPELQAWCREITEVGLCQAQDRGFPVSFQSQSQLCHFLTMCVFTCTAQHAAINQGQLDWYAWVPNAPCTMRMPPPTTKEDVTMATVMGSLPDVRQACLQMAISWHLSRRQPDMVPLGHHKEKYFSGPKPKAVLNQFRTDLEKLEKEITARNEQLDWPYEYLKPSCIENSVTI

[7] = Cmax in rhesus monkey at 5 mg/kg, iv and 4 mg/kg, po; type: ADME, organism-based, Macaca mulatta; details: in vivo
[8] = Half life in rat at 5 mg/kg, iv and 20 mg/kg, po; type: ADME, organism-based; details: in vivo
[9] = Oral bioavailability in rat at 20 mg/kg; type: ADME, organism-based; details: in vivo
[10] = Cmax in dog at 5 mg/kg, iv and 4 mg/kg, po; type: ADME, organism-based, Canis lupus familiaris; details: in vivo
[11] = biological target: T5, Polyunsaturated fatty acid lipoxygenase ALOX15 (Homo sapiens, UniProt P16050); test: Inhibition of 15-lipoxygenase
T5 sequence (P16050 whole entry): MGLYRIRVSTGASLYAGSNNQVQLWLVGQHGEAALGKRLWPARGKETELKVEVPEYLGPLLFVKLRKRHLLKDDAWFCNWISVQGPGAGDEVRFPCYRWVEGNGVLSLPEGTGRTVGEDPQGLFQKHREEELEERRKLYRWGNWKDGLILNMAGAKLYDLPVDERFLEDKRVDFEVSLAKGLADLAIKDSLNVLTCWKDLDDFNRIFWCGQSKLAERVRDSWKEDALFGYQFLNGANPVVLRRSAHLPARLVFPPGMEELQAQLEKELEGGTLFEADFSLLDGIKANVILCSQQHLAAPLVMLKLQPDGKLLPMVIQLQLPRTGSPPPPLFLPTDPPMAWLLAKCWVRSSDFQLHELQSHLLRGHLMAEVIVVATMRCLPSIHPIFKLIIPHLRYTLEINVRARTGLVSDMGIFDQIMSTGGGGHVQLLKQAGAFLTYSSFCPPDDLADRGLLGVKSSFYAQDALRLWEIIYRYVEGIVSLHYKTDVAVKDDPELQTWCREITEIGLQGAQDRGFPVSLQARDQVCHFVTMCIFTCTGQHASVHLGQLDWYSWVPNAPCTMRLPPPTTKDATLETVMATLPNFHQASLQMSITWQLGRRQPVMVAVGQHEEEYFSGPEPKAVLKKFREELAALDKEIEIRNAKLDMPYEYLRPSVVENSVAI

[12] = Half life in dog at 5 mg/kg, iv and 4 mg/kg, po; type: ADME, organism-based, Canis lupus familiaris; details: in vivo
[13] = Oral bioavailability in rhesus monkey at 4 mg/kg; type: ADME, organism-based, Macaca mulatta; details: in vivo
[14] = Cmax in rat at 5 mg/kg, iv and 20 mg/kg, po; type: ADME, organism-based; details: in vivo
[15] = Oral bioavailability in dog at 4 mg/kg; type: ADME, organism-based, Canis lupus familiaris; details: in vivo
[16] = Half life in rhesus monkey at 5 mg/kg, iv and 4 mg/kg, po; type: ADME, organism-based, Macaca mulatta; details: in vivo

Voltage-gated inwardly rectifying potassium channel KCNH2, sequence (Q12809 whole entry): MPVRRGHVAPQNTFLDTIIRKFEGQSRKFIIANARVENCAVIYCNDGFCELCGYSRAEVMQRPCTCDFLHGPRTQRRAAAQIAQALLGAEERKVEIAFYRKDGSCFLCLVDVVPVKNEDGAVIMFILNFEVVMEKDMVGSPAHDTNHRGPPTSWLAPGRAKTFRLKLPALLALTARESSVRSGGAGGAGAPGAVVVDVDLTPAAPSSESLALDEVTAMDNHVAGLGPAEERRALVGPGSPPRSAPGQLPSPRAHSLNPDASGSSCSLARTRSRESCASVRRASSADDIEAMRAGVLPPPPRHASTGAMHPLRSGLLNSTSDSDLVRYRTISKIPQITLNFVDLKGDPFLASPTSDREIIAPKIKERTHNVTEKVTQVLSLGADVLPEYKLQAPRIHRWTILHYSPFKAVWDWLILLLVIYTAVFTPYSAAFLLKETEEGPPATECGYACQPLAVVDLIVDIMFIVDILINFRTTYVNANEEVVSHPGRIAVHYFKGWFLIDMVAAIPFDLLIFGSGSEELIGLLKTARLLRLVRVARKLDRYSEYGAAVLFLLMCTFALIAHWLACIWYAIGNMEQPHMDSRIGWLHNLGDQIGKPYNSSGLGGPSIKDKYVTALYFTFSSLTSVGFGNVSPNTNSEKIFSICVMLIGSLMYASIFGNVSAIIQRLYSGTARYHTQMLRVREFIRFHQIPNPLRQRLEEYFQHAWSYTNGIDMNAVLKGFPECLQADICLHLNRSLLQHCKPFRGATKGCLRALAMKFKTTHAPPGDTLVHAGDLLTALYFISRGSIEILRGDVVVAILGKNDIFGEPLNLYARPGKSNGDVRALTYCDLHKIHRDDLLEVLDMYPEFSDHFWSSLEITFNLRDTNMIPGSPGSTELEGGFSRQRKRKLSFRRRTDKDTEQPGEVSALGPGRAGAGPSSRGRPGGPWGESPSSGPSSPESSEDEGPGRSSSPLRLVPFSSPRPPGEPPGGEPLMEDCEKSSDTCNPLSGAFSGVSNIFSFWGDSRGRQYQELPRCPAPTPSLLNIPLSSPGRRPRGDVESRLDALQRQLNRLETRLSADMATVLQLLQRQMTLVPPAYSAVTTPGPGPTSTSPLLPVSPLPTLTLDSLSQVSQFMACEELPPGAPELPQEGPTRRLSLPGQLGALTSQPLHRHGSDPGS

SMILES	IC50 [1] [nM]	IC50 [2] [nM]	Ki ([3]; read-out: Ki) [nM]	also measured
CCC(O)(c1cn(Cc2ccc3c(-c4ccccc4)c(C(=O)OC)sc3c2)nn1)C(F)(F)F (stereo not given)	260	7.9	–	–
CCC(O)(c1cn(Cc2ccc3c(-c4ccccc4)c(C(C)(C)O)sc3c2)nn1)C(F)(F)F (stereo not given)	392	198	2600	–
CCC(O)(c1cn(Cc2ccc3c(-c4ccccc4)c(C(=O)O)sc3c2)nn1)C(F)(F)F (stereo not given)	> 20000	> 10000	> 20000	–
CCC(O)(c1cn(Cc2ccc3c(-c4ccccc4)c(C(=O)N(C)C)sc3c2)nn1)C(F)(F)F (stereo not given)	1840	1890	> 20000	–
CCC(O)(c1cn(Cc2ccc3c(-c4ccccc4)c(C(C)O)sc3c2)nn1)C(F)(F)F (stereo not given)	161	88	3800	–
CCC(O)(c1cn(Cc2ccc3c(-c4ccccc4)c(C(=O)NC)sc3c2)nn1)C(F)(F)F (stereo not given)	263	223	–	–
CCC(O)(c1cn(Cc2ccc3c(-c4ccccc4)csc3c2)nn1)C(F)(F)F (stereo not given)	598	40	–	Ki [3]: Not Active
CCC(O)(c1cn(Cc2ccc3c(-c4ccccc4)c(CO)sc3c2)nn1)C(F)(F)F (stereo not given)	64	19	13000	–
CCC(O)(c1cn(Cc2ccc3c(-c4ccccc4)c(C(C)=O)sc3c2)nn1)C(F)(F)F (stereo not given)	84	11	4400	–

More lines, main results first:

IC50 [1] [nM]	IC50 [2] [nM]	SMILES	Ki ([3]; read-out: Ki) [nM]	also measured
154	1160	CC[C@@](O)(c1cn(Cc2ccc3c(-c4ccc(F)cc4)c(C(N)=O)sc3c2)nn1)C(F)(F)F	11000	–
31	39	CC[C@](O)(c1cn(Cc2ccc3c(-c4cccc(F)c4)c(C(N)=O)sc3c2)nn1)C(F)(F)F	14000	–
32	28	CC[C@](O)(c1cn(Cc2ccc3c(-c4ccccc4)c(C(N)=O)sc3c2)nn1)C(F)(F)F	–	–
> 20000	> 10000	CC[C@](O)(c1cn(Cc2ccc3c(-c4ccc(F)cc4)c(C(=O)O)sc3c2)nn1)C(F)(F)F	> 20000	inhibition [4]: inactive; inhibition (INH) ([3]; human): Not Active
70	55	CCC(O)(c1cn(Cc2ccc3c(-c4ccccc4)c(C(N)=O)sc3c2)nn1)C(F)(F)F (stereo not given)	–	–
21	55	CC[C@](O)(c1cn(Cc2ccc3c(-c4ccc(F)cc4)c(C(N)=O)sc3c2)nn1)C(F)(F)F	13000	IC50 [5]: > 20000 nM; IC50 [6]: > 20000 nM; Cmax [7]: 1.4 µM; half-life [8]: 7.9 h; bioavailability [9]: 114%; Cmax [10]: 6.7 µM; IC50 [11]: > 20000 nM; half-life [12]: 29 h; bioavailability [13]: 66%; Cmax [14]: 19.4 µM; bioavailability [15]: 120%; half-life [16]: 22 h

From ChEMBL document CHEMBL1287744, “Potent and selective 5-LO inhibitor bearing benzothiophene pharmacophore: discovery of MK-5286” (Bioorg Med Chem Lett, 2010)
